PMC3298755 (Nature Chemical Biology, 2011)
Read-outs that look alike come from different tables or passages of the source.

How the values were obtained:
COX-2 in stimulated DRGs [1] = type: cell-based, mouse; settings: read-out: IC50 for inhibition of 2-AG oxidation in DRGs
COX-2 in stimulated DRGs [2] = type: cell-based, mouse; settings: read-out: IC50 for inhibition of AEA oxidation in DRGs
COX-2 in stimulated DRGs [3] = type: cell-based, mouse
stimulated DRGs = test: Substrate levels; type: cell-based, mouse
FAAH = settings: read-out: IC50, FAAH inhibition; in vitro; ref [29]; cited from earlier work
mCOX-2 = target: T1, mCOX-2 (Mus musculus, UniProt Q05769); test: Inhibition of COX-2 oxygenation of AA, PG formation by LC-MS-MS; type: biochemical
T1 sequence (Q05769 18-604): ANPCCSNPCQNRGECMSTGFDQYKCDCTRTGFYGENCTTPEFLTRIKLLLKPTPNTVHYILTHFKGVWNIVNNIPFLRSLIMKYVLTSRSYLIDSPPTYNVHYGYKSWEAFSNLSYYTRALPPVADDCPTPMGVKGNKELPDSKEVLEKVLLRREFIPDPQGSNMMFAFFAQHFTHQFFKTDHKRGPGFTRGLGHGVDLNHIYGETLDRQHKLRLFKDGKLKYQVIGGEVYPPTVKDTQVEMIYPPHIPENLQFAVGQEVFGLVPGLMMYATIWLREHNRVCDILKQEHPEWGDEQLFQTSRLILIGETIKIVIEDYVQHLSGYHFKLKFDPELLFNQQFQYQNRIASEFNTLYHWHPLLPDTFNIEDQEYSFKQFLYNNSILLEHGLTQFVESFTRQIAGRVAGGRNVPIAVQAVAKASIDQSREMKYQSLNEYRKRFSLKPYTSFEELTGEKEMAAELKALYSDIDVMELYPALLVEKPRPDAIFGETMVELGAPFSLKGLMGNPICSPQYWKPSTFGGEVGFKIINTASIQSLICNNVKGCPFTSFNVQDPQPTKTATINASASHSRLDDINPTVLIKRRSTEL

SMILES	IC50 (COX-2 in stimulated DRGs [1]) [µM]	IC50 (COX-2 in stimulated DRGs [2]) [µM]	Inhibition of the synthesis of PGs in DRGs (COX-2 in stimulated DRGs [3])	Amount of 2-AG in cell extracts (stimulated DRGs)	Amount of AA in cell extracts (stimulated DRGs)	Amount of AEA in cell extracts (stimulated DRGs)	IC50 (FAAH) [µM]	Inhibition of AA oxidation by COX-2 (mCOX-2; at either 5 or 50 μM substrate concentrations)	Inhibition of the synthesis of PGs in DRGs (COX-2 in stimulated DRGs [3]; stimulated DRGs, at concentrations that inhibited PG-G and PG-EA synthesis)	IC50, inhibition of COX-2 oxygenation of AA (result in words) (mCOX-2; 50 μM AA, 15 min pre-incubation, 30 s reaction, LC-MS-MS)
C[C@@H](C(=O)O)c1ccc(-c2ccccc2)c(F)c1 [(R)-flurbiprofen]	5.8 ± 2.9	6 ± 2.7	did not inhibit	increased	did not increase	increased	> 1000	–	–	–
CC(C)Cc1ccc([C@@H](C)C(=O)O)cc1 [(R)-ibuprofen]	–	–	–	increased	did not increase	increased	–	–	–	–
COc1ccc2cc([C@@H](C)C(=O)O)ccc2c1 [(R)-naproxen]	–	–	–	increased	did not increase	increased	–	did not inhibit	did not inhibit	–
Cc1ccc(Nc2c(F)cccc2Cl)c(CC(=O)O)c1 [Lumiracoxib]	–	–	–	–	–	–	–	–	–	no inhib.
